What all share (format): biochemical
The target in one test is T1, CDK1/CyclinB (Homo sapiens, UniProt P06493).
T1 construct: purchased Millipore 14-450M
The test is described as follows: CDK1/CyclinB kinase inhibitory activity (Caliper mobility shift). The conditions noted are these: enzyme 3 nM, ATP 20 μM, 28° C. 30 min; read-out: CDK1/Cyclin B1 IC50. The procedure:
CDK1/CyclinB kinase inhibitory activity (IC50): 5 μl of various dilutions of test compound in 1× kinase buffer (50 mM HEPES pH 7.5, 10 mM MgCl2, 2 mM DTT and 0.01% Brij-35) was mixed with 10 μL of CDK1/CyclinB (Millipore, 14-450M #, final concentration 3 nM in 1× Kinase buffer) in 384 plates and incubated at room temperature for 10 min. To initiate each reaction, 10 μL of peptide solution containing fluorescently-labeled-peptide 18(5-FAM-QSPKKG-CONH2) (GL, 114202 #, final concentration 3000 nM) and ATP (final concentration 20 μM) in 1× Kinase buffer was added to each of the wells containing test compound and CDK1/CyclinB mixture. The reaction is then allowed to proceed at 28° C. for 30 min and terminated by the addition of 25 μL stop buffer (100 mM HEPES pH 7.5, 50 mM EDTA, 0.2% Coating Reagent #3 (Perkin Elmer, 760050 #) and 0.015% Brij-35).
(§1) Following the kinase reaction, Caliper EZ reader II (Downstream voltages: −500V, Upstream voltages: −2250V, Base pressure −0.5 PSI, Screen pressure −1.2 PSI) was used to separate the phosphorylated (product) and the unphosphorylated (substrate) fluorescently-labeled peptide 18 based on their different mobility. Both substrate and product were measured and the ratio of these values were used to generate % conversion by Caliper EZ reader II. These conversion values were then transformed into % inhibition of kinase activity using the formula: % Inhibition=[(MA−X)/(MA−MI)]×100% where MA=conversion value of DMSO only controls, MI=conversion value of no enzyme controls and X=conversion value at any given compound dose. IC50 values were then calculated by plotting dose-response curves and then using the XLfit application in Excel software.

For another test, the target named is T2, CDK4/CyclinD1 (Homo sapiens, UniProt P11802).
T2 construct: purchased ProQinase 0142-0143-1
The test is described as follows: CDK4/CyclinD1 kinase inhibitory activity (Caliper mobility shift). The conditions noted are these: enzyme 20 nM, ATP 672 uM, 28° C. 30 min; read-out: CDK4/Cyclin D1 IC50. The method, boiled down: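 Recombinant CDK4/Cyclin D1 (20 nM final) preincubated 10 min at room temperature with compound in HEPES pH 7.5 buffer with MgCl2, DTT and Triton X-100. Reaction started with 3000 nM FAM-labelled peptide and 672 uM ATP, run 30 min at 28° C, stopped with EDTA. Mobility-shift % conversion gave % inhibition, and IC50 came from dose-response fits.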

For the next test, the target named is T3, CDK7/CyclinH/MAT1 (Homo sapiens, UniProt P50613).
T3 construct: purchased Millipore 14-476M
The test is described as follows: CDK7/CyclinH/MAT1 kinase inhibitory activity (Caliper mobility shift). To be noted: enzyme 12.5 nM, ATP 70 μM, 28° C. 30 min; read-out: CDK7/Cyclin H/MAT1 IC50. On the procedure:
CDK7/CyclinH/MAT1 kinase inhibitory activity (IC50): 5 μl of various dilutions of test compound in 1× kinase buffer (20 mM HEPES, pH 7.5, 10 mM MgCl2, 2 mM DTT and 0.01% Triton X-100) was mixed with 10 μL of CDK7/CyclinH/MAT1 (Millipore, 14-476M #, final concentration 12.5 nM in 1× Kinase buffer) in 384 plates and incubated at room temperature for 10 min. To initiate each reaction, 10 μL of peptide solution containing fluorescently-labeled-peptide CTD3 (5-FAM-[…], GL, SY346885 #, final concentration 3000 nM) and ATP (final concentration 70 μM) in 1× Kinase buffer was added to each of the wells containing test compound and CDK7/CyclinH/MAT1 mixture. The reaction is then allowed to proceed at 28° C. for 30 min and terminated by the addition of 25 μL stop buffer (100 mM HEPES pH 7.5, 50 mM EDTA, 0.2% Coating Reagent #3 (Perkin Elmer, 760050 #) and 0.015% Brij-35).
as §1, with “the phosphoiylated” for “the phosphorylated”, “peptide CTD3” for “peptide 18”

T3 sequence (P50613 whole entry): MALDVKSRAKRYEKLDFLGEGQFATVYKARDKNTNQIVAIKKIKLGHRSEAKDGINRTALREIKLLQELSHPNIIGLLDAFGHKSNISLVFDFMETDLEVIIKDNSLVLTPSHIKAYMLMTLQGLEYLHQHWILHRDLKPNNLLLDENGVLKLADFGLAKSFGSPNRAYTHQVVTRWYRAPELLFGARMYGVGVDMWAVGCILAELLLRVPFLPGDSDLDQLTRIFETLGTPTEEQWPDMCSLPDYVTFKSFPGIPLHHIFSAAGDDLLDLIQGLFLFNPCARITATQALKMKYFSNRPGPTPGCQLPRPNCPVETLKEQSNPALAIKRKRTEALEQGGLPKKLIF
T3 sequence (P51946 whole entry partner): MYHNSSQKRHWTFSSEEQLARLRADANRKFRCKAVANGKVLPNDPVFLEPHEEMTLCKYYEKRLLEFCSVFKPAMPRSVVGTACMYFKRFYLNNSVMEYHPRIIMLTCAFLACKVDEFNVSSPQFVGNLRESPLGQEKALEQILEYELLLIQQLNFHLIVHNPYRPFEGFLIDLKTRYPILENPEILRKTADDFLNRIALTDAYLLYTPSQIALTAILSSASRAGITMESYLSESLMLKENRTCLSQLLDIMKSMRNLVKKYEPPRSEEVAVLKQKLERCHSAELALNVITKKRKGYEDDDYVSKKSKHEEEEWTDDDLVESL
T3 sequence (P51948 whole entry partner): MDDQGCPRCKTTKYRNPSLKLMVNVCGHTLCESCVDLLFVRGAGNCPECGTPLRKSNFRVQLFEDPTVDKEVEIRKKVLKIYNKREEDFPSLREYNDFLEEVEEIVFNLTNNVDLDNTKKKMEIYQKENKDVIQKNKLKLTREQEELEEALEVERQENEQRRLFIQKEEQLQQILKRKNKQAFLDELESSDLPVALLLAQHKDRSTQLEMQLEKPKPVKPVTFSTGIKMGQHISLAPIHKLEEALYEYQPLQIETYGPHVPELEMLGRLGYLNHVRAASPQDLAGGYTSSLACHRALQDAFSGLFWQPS
T2 sequence (P11802 whole entry): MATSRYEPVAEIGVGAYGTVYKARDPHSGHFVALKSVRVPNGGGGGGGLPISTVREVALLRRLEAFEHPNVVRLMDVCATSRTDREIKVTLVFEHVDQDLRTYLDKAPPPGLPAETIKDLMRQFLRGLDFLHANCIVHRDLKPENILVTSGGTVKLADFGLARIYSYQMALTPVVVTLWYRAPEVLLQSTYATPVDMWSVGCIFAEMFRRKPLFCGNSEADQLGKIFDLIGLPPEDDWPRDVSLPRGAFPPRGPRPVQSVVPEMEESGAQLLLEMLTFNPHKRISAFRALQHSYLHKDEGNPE
T2 sequence (P24385 whole entry partner): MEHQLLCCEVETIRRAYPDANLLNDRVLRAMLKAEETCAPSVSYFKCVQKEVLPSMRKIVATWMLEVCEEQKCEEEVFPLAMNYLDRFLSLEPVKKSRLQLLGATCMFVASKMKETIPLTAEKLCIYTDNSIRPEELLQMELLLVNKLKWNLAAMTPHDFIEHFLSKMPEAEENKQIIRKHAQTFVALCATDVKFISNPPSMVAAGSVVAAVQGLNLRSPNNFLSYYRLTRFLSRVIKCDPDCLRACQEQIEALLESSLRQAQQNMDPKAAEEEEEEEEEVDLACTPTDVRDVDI
T1 sequence (P06493 whole entry): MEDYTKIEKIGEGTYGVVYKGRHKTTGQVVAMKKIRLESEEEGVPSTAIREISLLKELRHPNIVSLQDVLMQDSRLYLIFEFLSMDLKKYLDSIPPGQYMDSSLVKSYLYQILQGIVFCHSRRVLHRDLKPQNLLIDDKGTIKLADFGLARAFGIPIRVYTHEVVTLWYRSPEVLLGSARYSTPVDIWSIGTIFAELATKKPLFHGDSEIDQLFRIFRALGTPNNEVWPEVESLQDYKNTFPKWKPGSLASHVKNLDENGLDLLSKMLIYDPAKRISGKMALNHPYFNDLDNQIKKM
T1 sequence (P14635 whole entry partner): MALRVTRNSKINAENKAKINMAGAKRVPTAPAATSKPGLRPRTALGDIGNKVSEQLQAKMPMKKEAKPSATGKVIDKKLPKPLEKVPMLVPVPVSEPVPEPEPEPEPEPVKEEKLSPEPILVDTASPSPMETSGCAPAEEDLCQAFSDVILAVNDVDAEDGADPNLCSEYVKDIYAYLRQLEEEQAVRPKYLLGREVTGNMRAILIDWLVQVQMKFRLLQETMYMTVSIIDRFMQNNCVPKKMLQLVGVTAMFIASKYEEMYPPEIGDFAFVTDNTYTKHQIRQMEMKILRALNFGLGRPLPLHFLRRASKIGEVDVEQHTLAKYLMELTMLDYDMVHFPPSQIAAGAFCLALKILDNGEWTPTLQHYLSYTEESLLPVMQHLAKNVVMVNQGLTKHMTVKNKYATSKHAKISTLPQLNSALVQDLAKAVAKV

Consider `CC1(C)NCc2c(cnc3c(F)cc(-c4nc(N[C@@H]5CCOC[C@H]5O)ncc4F)cc23)C1O` (single isomer, unassigned) [Example 106b], for which the IC50 was 100 to 1000 nM on CDK1/CyclinB, below 10 nM at CDK4/CyclinD1 and 100 to 1000 nM on CDK7/CyclinH/MAT1.

For `Cc1[nH]cnc1-c1cnc2c(F)cc(-c3nc(N[C@@H]4CCOC[C@H]4O)ncc3Cl)cc2c1` [Example 18, (3S,4R)-4-((5-chloro-4-(8-fluoro-3-(5-methyl-1H-imidazol-4-yl)quinolin-6-yl)pyrimidin-2-yl)amino)tetrahydro-2H-pyran-3-ol], the IC50 on CDK1/CyclinB was 100 to 1000 nM; on CDK4/CyclinD1 it was below 10 nM; at CDK7/CyclinH/MAT1, at least 1000 nM.

Regarding `Cc1nc2c(F)cc(-c3nc(N[C@@H]4CCOC[C@H]4O)ncc3Cl)cc2c2c1CC(C)(C)NC2` [Example 98], the IC50 at CDK1/CyclinB is at least 1000 nM; on CDK4/CyclinD1 it was below 10 nM; at CDK7/CyclinH/MAT1 it was at least 1000 nM.

On to `CNC(C)c1cc2cc(-c3nc(N[C@@H]4CCOC[C@H]4O)ncc3Cl)cc(F)c2nc1C` (single isomer, unassigned) [Example 45a], for which the results for the IC50 on CDK1/CyclinB, at CDK4/CyclinD1 and at CDK7/CyclinH/MAT1 were 100 to 1000 nM, below 10 nM and at least 1000 nM, respectively.

As for `CC(C)(O)c1cnc2c(F)cc(-c3nc(N[C@@H]4CCOC[C@H]4O)ncc3F)cc2c1Cl` [Example 22, (3S,4R)-4-((4-(4-chloro-8-fluoro-3-(2-hydroxypropan-2-yl)quinolin-6-yl)-5-fluoropyrimidin-2-yl)amino)tetrahydro-2H-pyran-3-ol], the IC50 was 100 to 1000 nM on CDK1/CyclinB, below 10 nM at CDK4/CyclinD1 and 100 to 1000 nM at CDK7/CyclinH/MAT1.

Take `CC(C)(O)c1cnc2c(F)cc(-c3nc(Nc4ccc(-c5c[nH]cn5)cn4)ncc3F)cc2c1Cl` [Example 52]: the IC50 was at least 1000 nM on CDK1/CyclinB, below 10 nM on CDK4/CyclinD1 and at least 1000 nM at CDK7/CyclinH/MAT1.

These data come from US20260242395A1, “AMINOHETEROARYL KINASE INHIBITORS” (ALLORION THERAPEUTICS INC, priority 2022, published 2026).
